# Measurements from ChEMBL document CHEMBL1909046, “DrugMatrix in vitro pharmacology data”.
# Key:
# [1] = molecular target: T1, Type-2 angiotensin II receptor (Homo sapiens, UniProt P50052); assay type: cell-based; conditions: cho-k1; further: in other assays of this panel Not Active means under 50% inhibition at 10 µM
# T1 sequence (P50052 whole entry): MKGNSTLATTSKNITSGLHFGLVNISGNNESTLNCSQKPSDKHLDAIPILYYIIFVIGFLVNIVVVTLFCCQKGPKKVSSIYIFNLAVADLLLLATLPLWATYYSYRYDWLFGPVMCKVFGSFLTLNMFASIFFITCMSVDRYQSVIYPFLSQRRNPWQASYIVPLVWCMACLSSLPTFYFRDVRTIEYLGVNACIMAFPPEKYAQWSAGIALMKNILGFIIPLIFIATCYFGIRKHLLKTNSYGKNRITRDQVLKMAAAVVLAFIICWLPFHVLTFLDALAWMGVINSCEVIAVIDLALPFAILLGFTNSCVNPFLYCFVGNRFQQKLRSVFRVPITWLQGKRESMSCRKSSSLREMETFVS
# [2] = molecular target: Cannabinoid receptor 1 (Homo sapiens, UniProt P21554); assay type: cell membranes, Membrane; conditions: chem-1; further: in other assays of this panel Not Active means under 50% inhibition at 10 µM
# Chain of Cannabinoid receptor 1 (P21554 whole entry): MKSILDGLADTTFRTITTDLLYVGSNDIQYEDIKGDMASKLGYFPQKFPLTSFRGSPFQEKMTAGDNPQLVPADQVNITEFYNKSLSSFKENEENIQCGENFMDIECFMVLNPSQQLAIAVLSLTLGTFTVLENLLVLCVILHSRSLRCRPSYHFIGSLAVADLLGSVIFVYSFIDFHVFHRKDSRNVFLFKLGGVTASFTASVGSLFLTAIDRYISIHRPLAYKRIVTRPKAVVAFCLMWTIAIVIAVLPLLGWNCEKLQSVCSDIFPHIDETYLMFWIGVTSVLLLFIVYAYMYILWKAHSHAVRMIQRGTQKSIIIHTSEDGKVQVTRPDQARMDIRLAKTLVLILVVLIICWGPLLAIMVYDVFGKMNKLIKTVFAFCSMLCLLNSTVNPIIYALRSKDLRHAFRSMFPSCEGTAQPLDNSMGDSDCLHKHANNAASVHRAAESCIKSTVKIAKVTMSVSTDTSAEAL
# [3] = molecular target: T2, Polyunsaturated fatty acid lipoxygenase ALOX15 (Oryctolagus cuniculus, UniProt P12530); assay: biochemical; assay type: tissue-based, Reticulocytes;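 further: inhibition of 15-lipoxygenase enzyme activity measured with linoleic acid as the substrate; in other assays of this panel Not Active means under 50% inhibition at 10 µM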
# T2 sequence (P12530 whole entry): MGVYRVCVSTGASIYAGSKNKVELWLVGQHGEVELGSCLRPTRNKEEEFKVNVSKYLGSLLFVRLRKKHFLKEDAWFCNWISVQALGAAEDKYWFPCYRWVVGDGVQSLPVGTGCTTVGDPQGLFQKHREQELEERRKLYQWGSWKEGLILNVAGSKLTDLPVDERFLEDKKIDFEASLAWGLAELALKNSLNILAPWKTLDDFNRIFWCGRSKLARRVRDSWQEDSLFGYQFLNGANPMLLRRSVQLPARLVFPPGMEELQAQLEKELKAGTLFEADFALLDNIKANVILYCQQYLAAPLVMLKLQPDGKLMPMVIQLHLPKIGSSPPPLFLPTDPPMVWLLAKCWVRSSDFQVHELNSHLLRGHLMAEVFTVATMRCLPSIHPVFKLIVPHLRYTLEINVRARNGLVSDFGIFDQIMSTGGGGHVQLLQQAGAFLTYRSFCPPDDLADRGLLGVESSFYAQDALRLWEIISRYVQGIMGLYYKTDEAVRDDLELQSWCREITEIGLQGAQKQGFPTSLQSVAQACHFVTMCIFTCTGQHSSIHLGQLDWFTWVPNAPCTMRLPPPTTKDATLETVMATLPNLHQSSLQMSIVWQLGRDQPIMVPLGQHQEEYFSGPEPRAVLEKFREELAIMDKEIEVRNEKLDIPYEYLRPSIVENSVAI
# [4] = molecular target: Mitogen-activated protein kinase 3 (Homo sapiens, UniProt P27361); assay: DRUGMATRIX: Protein Serine/Threonine Kinase, ERK1 enzyme inhibition (substrate: Myelin Basic Protein); set-up: species or system Escherichia coli; conditions: Not Active = under 50% inhibition at 10 µM
# Chain of Mitogen-activated protein kinase 3 (P27361 whole entry): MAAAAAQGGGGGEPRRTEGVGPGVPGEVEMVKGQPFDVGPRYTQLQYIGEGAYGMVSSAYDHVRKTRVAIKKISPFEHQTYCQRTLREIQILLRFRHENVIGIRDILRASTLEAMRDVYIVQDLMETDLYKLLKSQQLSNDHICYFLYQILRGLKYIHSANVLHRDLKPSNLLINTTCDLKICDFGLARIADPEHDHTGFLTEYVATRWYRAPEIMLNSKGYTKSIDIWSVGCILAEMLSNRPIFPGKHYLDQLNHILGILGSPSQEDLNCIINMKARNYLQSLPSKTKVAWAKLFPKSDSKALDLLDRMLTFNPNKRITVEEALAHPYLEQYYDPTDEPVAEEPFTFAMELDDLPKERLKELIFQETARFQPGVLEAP
# [5] = molecular target: T3, Caspase-1 (Homo sapiens, UniProt P29466); set-up: species or system Escherichia coli;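 further: Caspase-1 enzyme inhibition assay with a peptide substrate; in other assays of this panel Not Active means under 50% inhibition at 10 µM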
# T3 sequence (P29466 whole entry): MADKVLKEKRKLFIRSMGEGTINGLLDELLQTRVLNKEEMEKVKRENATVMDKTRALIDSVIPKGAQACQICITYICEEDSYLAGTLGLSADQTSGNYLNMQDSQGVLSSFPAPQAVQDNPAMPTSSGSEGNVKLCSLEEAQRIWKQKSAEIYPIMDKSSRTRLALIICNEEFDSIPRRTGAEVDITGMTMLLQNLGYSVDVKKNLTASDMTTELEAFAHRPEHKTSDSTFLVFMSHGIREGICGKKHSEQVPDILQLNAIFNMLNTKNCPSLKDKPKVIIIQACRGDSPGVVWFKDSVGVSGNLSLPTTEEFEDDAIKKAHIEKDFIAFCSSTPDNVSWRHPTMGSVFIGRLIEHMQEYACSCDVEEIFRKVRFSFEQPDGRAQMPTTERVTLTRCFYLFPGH
# [6] = molecular target: Epidermal growth factor receptor (Homo sapiens, UniProt P00533); assay: DRUGMATRIX: Protein Tyrosine Kinase, EGF Receptor enzyme inhibition (substrate: Poly(Glu:Tyr)); assay type: cell-based, Insect cells; conditions: Not Active = under 50% inhibition at 10 µM
# [7] = molecular target: Mu-type opioid receptor (Homo sapiens, UniProt P35372); assay: DRUGMATRIX: Opiate mu (OP3, MOP) radioligand binding (ligand: [3H] Diprenorphine); assay type: cell membranes, CHO-K1, Membrane; conditions: cho-k1; Not Active = under 50% inhibition at 10 µM
# Chain of Mu-type opioid receptor (P35372 whole entry): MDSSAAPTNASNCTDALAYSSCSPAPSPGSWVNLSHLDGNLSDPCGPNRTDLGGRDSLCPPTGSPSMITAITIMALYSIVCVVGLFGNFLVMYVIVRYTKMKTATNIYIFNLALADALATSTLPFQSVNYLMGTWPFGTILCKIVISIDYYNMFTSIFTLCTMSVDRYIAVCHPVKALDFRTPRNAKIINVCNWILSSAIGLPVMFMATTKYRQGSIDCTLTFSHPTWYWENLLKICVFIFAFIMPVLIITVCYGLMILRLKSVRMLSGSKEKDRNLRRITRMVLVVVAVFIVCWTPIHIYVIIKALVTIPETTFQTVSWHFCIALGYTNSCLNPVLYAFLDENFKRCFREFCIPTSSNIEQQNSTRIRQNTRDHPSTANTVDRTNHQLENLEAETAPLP
# [8] = molecular target: Cytochrome P450 2E1 (Homo sapiens, UniProt P05181); conditions: bti-tn-5b1-4; further: in other assays of this panel Not Active means under 50% inhibition at 10 µM
# Chain of Cytochrome P450 2E1 (P05181 whole entry): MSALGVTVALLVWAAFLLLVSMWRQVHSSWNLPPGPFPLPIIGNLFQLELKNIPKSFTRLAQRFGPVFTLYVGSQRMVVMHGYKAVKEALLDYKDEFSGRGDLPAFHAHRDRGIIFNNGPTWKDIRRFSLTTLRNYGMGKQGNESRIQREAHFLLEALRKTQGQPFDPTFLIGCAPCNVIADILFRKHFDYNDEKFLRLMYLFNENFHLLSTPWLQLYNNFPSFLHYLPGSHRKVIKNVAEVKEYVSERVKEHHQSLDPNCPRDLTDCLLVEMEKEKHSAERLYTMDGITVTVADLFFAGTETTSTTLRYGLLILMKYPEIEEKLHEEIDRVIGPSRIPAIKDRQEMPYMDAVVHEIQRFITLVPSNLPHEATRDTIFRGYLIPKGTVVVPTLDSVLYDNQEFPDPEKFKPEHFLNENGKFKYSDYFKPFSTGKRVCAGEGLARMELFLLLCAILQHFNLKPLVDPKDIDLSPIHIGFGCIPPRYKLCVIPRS
# [9] = molecular target: Substance-P receptor (Homo sapiens, UniProt P25103); assay type: cell membranes, CHO, Membrane; conditions: cho; further: in other assays of this panel Not Active means under 50% inhibition at 10 µM
# Chain of Substance-P receptor (P25103 whole entry): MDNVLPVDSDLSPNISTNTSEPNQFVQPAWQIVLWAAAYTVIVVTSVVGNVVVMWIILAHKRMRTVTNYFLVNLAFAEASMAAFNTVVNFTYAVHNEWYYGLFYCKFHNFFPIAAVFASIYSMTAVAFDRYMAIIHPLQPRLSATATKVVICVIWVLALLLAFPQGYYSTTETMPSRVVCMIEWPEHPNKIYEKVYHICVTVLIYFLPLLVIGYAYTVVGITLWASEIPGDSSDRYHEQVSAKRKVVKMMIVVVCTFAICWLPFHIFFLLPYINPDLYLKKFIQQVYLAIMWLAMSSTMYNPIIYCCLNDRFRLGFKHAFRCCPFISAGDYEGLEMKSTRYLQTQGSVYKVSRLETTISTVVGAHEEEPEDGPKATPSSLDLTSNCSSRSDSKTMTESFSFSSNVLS
# [10] = DRUGMATRIX: GABAA, Flunitrazepam, Central radioligand binding (ligand: [3H] Flunitrazepam); assay type: cell membranes, Rattus norvegicus, Wistar, Brain, Membrane; conditions: Not Active = under 50% inhibition at 10 µM
# [11] = DRUGMATRIX: Calcium Channel Type L, Benzothiazepine radioligand binding (ligand: [3H] Diltiazem); assay type: cell membranes, Rattus norvegicus, Wistar, Brain, Membrane; conditions: Not Active = under 50% inhibition at 10 µM
# [12] = DRUGMATRIX: ATPase, Na+/K+ enzyme inhibition (substrate: ATP); assay type: tissue-based, Sus scrofa, Heart; conditions: Not Active = under 50% inhibition at 10 µM
# [13] = molecular target: Sodium-dependent noradrenaline transporter (Homo sapiens, UniProt P23975); assay: DRUGMATRIX: Norepinephrine Transporter radioligand binding (ligand: [125I] RTI-55); assay type: cell membranes, MDCK, Membrane; conditions: Not Active = under 50% inhibition at 10 µM; for Ki: read-out: Ki
# Chain of Sodium-dependent noradrenaline transporter (P23975 whole entry): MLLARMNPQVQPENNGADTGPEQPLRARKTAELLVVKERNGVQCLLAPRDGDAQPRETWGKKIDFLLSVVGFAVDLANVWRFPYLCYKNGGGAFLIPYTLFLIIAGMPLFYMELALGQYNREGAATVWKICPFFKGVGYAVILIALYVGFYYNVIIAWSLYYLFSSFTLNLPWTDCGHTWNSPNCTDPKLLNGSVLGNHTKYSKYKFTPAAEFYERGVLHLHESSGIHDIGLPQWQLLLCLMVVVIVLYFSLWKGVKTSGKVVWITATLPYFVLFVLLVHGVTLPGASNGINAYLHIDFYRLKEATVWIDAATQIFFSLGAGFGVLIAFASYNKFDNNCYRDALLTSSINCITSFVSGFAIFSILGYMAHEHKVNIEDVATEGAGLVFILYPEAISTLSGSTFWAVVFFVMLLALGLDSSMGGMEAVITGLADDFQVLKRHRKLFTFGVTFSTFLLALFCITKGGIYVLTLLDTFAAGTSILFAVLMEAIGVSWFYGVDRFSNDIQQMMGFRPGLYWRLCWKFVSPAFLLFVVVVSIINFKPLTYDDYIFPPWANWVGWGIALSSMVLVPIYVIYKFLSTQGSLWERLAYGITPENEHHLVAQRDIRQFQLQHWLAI
# [14] = DRUGMATRIX: Purinergic P2X radioligand binding (ligand: [3H] alpha, beta-Methylene-ATP); assay type: cell membranes, Oryctolagus cuniculus, New Zealand albino, Urinary bladder, Membrane; conditions: Not Active = under 50% inhibition at 10 µM
# [15] = DRUGMATRIX: Tumor Necrosis Factor (TNF), Non-Selective radioligand binding (ligand: [125I] TNF-alpha); assay type: cell membranes, Membrane; conditions: u-937; Not Active = under 50% inhibition at 10 µM
molecule,measurement,setting,value
CN(C)CCCN1c2ccccc2CCc2ccc(Cl)cc21 [CLOMIPRAMINE],IC50,[1],Not Active
same,IC50,[2],Not Active
same,IC50,[3]; reticulocytes,Not Active
same,IC50,[4],Not Active
same,IC50,[5],Not Active
same,IC50,[6]; insect cells,Not Active
same,IC50,[7],Not Active
same,IC50,[8],Not Active
same,Ki,[8],Not Active
same,IC50,[9],Not Active
IVERMECTIN,IC50,[10],Not Active
same,Ki,[10],Not Active
same,IC50,[11],Not Active
same,Ki,[11],Not Active
same,IC50,[1],Not Active
same,Ki,[1],Not Active
same,IC50,[2],Not Active
same,Ki,[2],Not Active
same,IC50,[3]; reticulocytes,Not Active
same,Ki,[3]; reticulocytes,Not Active
same,IC50,[4],Not Active
same,Ki,[4],Not Active
same,IC50,[5],Not Active
same,Ki,[5],Not Active
same,IC50,[12],Not Active
same,Ki,[12],Not Active
same,IC50,"[13]; mdck, read-out: IC50",3.95 µM
same,Ki,[13]; mdck,3.91 µM
same,IC50,[6]; insect cells,Not Active
same,Ki,[6]; insect cells,Not Active
same,IC50,[14],Not Active
same,Ki,[14],Not Active
same,IC50,[8],Not Active
same,Ki,[8],Not Active
same,IC50,[9],Not Active
same,Ki,[9],Not Active
same,IC50,[15],Not Active
same,Ki,[15],Not Active
O=C1c2c(O)ccc(O)c2C(=O)c2c(NCCNCCO)ccc(NCCNCCO)c21 [MITOXANTRONE],IC50,[10],Not Active
same,Ki,[10],Not Active
same,IC50,[11],Not Active
same,Ki,[11],Not Active
same,IC50,[1],Not Active
same,IC50,[2],Not Active
same,IC50,[3]; read-out: IC50,1.79 µM
same,IC50,[4],Not Active
same,IC50,[5],Not Active
same,IC50,[12],Not Active
same,Ki,[12],Not Active
same,IC50,[13]; read-out: IC50,4.99 µM
same,Ki,[13],4.95 µM
same,IC50,[6]; read-out: IC50,5.39 µM
same,IC50,[14],Not Active
same,Ki,[14],Not Active
same,IC50,[7],Not Active
same,IC50,[9],Not Active
same,IC50,[15],Not Active
same,Ki,[15],Not Active
COC(=O)c1ccc(O)cc1 [METHYLPARABEN],IC50,[10],Not Active
same,Ki,[10],Not Active
same,IC50,[11],Not Active
same,Ki,[11],Not Active
same,IC50,[1],Not Active
same,IC50,[2],Not Active
same,IC50,[3]; reticulocytes,Not Active
same,IC50,[4],Not Active
same,IC50,[5],Not Active
same,IC50,[12],Not Active
same,Ki,[12],Not Active
same,IC50,[6]; insect cells,Not Active
same,IC50,[14],Not Active
same,Ki,[14],Not Active
same,IC50,[7],Not Active
same,IC50,[8],Not Active
same,Ki,[8],Not Active
same,IC50,[9],Not Active
same,IC50,[15],Not Active
same,Ki,[15],Not Active
CN1CCN2c3ccccc3Cc3ccccc3C2C1 (configuration not stated) [MIANSERIN],IC50,[1],Not Active
same,IC50,[2],Not Active
same,IC50,[3]; reticulocytes,Not Active
same,IC50,[4],Not Active
same,IC50,[5],Not Active
same,IC50,[6]; insect cells,Not Active
same,IC50,[7],Not Active
same,IC50,[8],Not Active
same,Ki,[8],Not Active
same,IC50,[9],Not Active
CSc1ccc2c(c1)N(CCC1CCCCN1C)c1ccccc1S2 (configuration not stated) [THIORIDAZINE],IC50,[1],Not Active
same,IC50,[2],Not Active
same,IC50,[3]; reticulocytes,Not Active
same,IC50,[4],Not Active
same,IC50,[5],Not Active
same,IC50,[6]; read-out: IC50,2.95 µM
same,IC50,[7],Not Active
same,IC50,[8],Not Active
same,Ki,[8],Not Active
same,IC50,[9],Not Active
COC(=O)C1=C(C)NC(C)=C(C(=O)OC)C1c1ccccc1[N+](=O)[O-] [NIFEDIPINE],IC50,[10],Not Active
same,Ki,[10],Not Active
same,IC50,[11]; read-out: IC50,0.00867 µM
same,Ki,[11]; read-out: Ki,0.00771 µM
same,IC50,[1],Not Active
same,IC50,[2],Not Active
same,IC50,[3]; read-out: IC50,15.1 µM
same,IC50,[4],Not Active
same,IC50,[5],Not Active
same,IC50,[12],Not Active
same,Ki,[12],Not Active
same,IC50,[13]; mdck,Not Active
same,IC50,[6]; insect cells,Not Active
same,IC50,[14],Not Active
same,Ki,[14],Not Active
same,IC50,[7],Not Active
same,IC50,[9],Not Active
same,IC50,[15],Not Active
same,Ki,[15],Not Active
CC(C)(O)c1ccccc1CC[C@@H](SCC1(CC(=O)O)CC1)c1cccc(/C=C/c2ccc3ccc(Cl)cc3n2)c1 [MONTELUKAST],IC50,[1],Not Active
same,IC50,[2],Not Active
same,IC50,[3]; reticulocytes,Not Active
same,IC50,[4],Not Active
same,IC50,[5],Not Active
same,IC50,[6]; read-out: IC50,3.2 µM
same,IC50,[7],Not Active
same,IC50,[8],Not Active
same,Ki,[8],Not Active
same,IC50,[9],Not Active
Nc1nnc(-c2cccc(Cl)c2Cl)c(N)n1 [LAMOTRIGINE],IC50,[10],Not Active
same,Ki,[10],Not Active
same,IC50,[11],Not Active
same,Ki,[11],Not Active
same,IC50,[1],Not Active
same,IC50,[2],Not Active
same,IC50,[3]; reticulocytes,Not Active
same,IC50,[4],Not Active
same,IC50,[5],Not Active
same,IC50,[12],Not Active
same,Ki,[12],Not Active
same,IC50,[6]; insect cells,Not Active
same,IC50,[14],Not Active
same,Ki,[14],Not Active
same,IC50,[7],Not Active
same,IC50,[8],Not Active
same,Ki,[8],Not Active
same,IC50,[9],Not Active
same,IC50,[15],Not Active
same,Ki,[15],Not Active
NNc1ccccc1 [PHENYLHYDRAZINE],IC50,[10],Not Active
same,Ki,[10],Not Active
same,IC50,[11],Not Active
same,Ki,[11],Not Active
same,IC50,[1],Not Active
same,IC50,[2],Not Active
same,IC50,[3]; read-out: IC50,1.67 µM
same,IC50,[4],Not Active
same,IC50,[5],Not Active
same,IC50,[12],Not Active
same,Ki,[12],Not Active
same,IC50,[13]; mdck,Not Active
same,IC50,[6]; insect cells,Not Active
same,IC50,[14],Not Active
same,Ki,[14],Not Active
same,IC50,[8],Not Active
same,Ki,[8],Not Active
same,IC50,[9],Not Active
same,IC50,[15],Not Active
same,Ki,[15],Not Active
